What was measured:
[1] = tested on: D-Amphetamine-induced locomotion; assay: Pharmacodynamic study in amphetamine-induced locomotion model; settings: D-AMPH 1.5 mg/kg IP
[2] = Pharmacokinetic evaluation of prodrugs in rats following intramuscular injection; format: in vivo, Male Sprague-Dawley rats; settings: rat, IM injection, plasma drug concentration; dose (mg/kg) and excipients/formulation differ per table line
Procedure: Pharmakokinetic Evaluation of Prodrugs in Rats Following Intramuscular Injection
Male Sprague-Dawley rats (Charles River Laboratories, Wilmington, Mass.) were obtained. Approximately 24 rats were used in each study. Rats were approximately 350-375 g at time of arrival. Rats were housed 2 per cage with ad libitum chow and water. Environmental conditions in the housing room: 64-67° F., 30% to 70% relative humidity, and 12:12-h light:dark cycle. All experiments were approved by the institutional animal care and use committee.
Rats were dosed IM by means of a 25 gauge, ⅝ in. needle with 1 cc syringe 0.3 mL suspension was withdrawn from the vial containing the test compound (see Table E). The […] was injected in the muscles of the hind limb after anesthesia with isoflourane. Blood samples were collected via a lateral tail vein after brief anesthesia with Isoflurane. A 27½ G needle and 1 cc syringe without an anticoagulant was used for the blood collection. Approximately […] of whole blood was collected at each sampling time-point of 6 hours, 24 hours and 2, 5, 7, 9, 12, 14, 21, 28, 35 days after administration. Once collected, whole blood was immediately transferred to tubes containing K2 EDTA, inverted 10-15 times and immediately placed on ice. The tubes were centrifuged for 2 minutes at >14,000 g's (11500 RPMs using Eppendorf Centrifuge 5417C, F45-30-11 rotor) at room temperature to separate plasma. Plasma samples were transferred to labeled plain tubes (MICROTAINER®; MFG# BD5962) and stored frozen at <−70° C.
Drug concentrations in plasma samples were analyzed by liquid chromatography-mass spectroscopy using appropriate parameters for each compound. Half-life, volume of distribution, clearance, maximal concentration, and AUC were calculated by using WinNonlin Version 5.2 software.

[3] = PO oral oil solution, 0.66, 10 and 20 mg/rat
[4] = PO oral oil solution, at the higher dose of 20 mg

Structure (SMILES)	inhibition of increases in distance traveled caused by D-AMPH [1, 4]	AUC0-T [2] [ng·days/mL]	other results
CCCCCC(=O)OCN1C(=O)CCc2ccc(OCCCCN3CCN(c4cccc(Cl)c4Cl)CC3)cc21 [Compound 4, (7-(4-(4-(2,3-dichlorophenyl)piperazin-1-yl)butoxy)-2-oxo-3,4-dihydroquinolin-1(2H)-yl)methyl hexanoate]			dose dependence of inhibition of distance travelled [1, 3]: did not appear to be dose dependent; inhibition of increases in distance traveled caused by D-AMPH [1, 3]: significantly inhibited
CCCCCCCCCCCC(=O)OCN1C(=O)CCc2ccc(OCCCCN3CCN(c4cccc(Cl)c4Cl)CC3)cc21 [Compound 7, (7-(4-(4-(2,3-dichlorophenyl)piperazin-1-yl)butoxy)-2-oxo-3,4-dihydroquinolin-1(2H)-yl)methyl dodecanoate]	significantly inhibit		
CCCCCCCCCCCCCC(=O)OCN1C(=O)CCc2ccc(OCCCCN3CCN(c4cccc(Cl)c4Cl)CC3)cc21 [Compound 8, (7-(4-(4-(2,3-dichlorophenyl)piperazin-1-yl)butoxy)-2-oxo-3,4-dihydroquinolin-1(2H)-yl)methyl tetradecanoate]		666.1	AUC0-14 [2]: 580.3 ng·days/mL
CNC(=O)OCN1C(=O)CCc2ccc(OCCCCN3CCN(c4cccc(Cl)c4Cl)CC3)cc21 [Compound 47, (7-(4-(4-(2,3-dichlorophenyl)piperazin-1-yl)butoxy)-2-oxo-3,4-dihydroquinolin-1(2H)-yl)methyl methylcarbamate]	significantly inhibit		
CCOC(=O)OCN1C(=O)CCc2ccc(OCCCCN3CCN(c4cccc(Cl)c4Cl)CC3)cc21 [Compound 79, (7-(4-(4-(2,3-dichlorophenyl)piperazin-1-yl)butoxy)-2-oxo-3,4-dihydroquinolin-1(2H)-yl)methyl ethyl carbonate]		940	

From patent US8796276B2, “Heterocyclic compounds for the treatment of neurological and psychological disorders” (Alkermes Pharma Ireland Limited, priority 2009, dated 2014)
